Patent US12544356B2, “Combination of a chromene compound and a second active agent” (EUCLISES PHARMACEUTICALS, INC., priority 2016, dated 2026)
Values belong to the molecule of their own block, whether it stands above or below them.

Assays:
prostaglandin E2 (PGE2) = assay: CT26 tumoral PGE-2 (Example 6); type: in vivo, Female Harlan Balb/c mice (BALB/cAnNHsd); settings: 10 mg/kg (Group 8)
Method: (§1) CT26 murine colon carcinoma cells were prepared as in Example 2. Female Harlan Balb/c mice (BALB/cAnNHsd) were inoculated with 5×10^5 CT26 cells suspended in PBS (200 μL) subcutaneously high in the axilla (just under the fore limb). All mice were sorted into study groups based on caliper measurement estimation of tumor burden on Day 8 when the mean tumor burden for all animals was approximately 79 mm^3 (range of group means, 75-83 mm^3).

[1] = tested on: CT26.WT murine colon carcinomas; assay: CT26 tumor volume, Compound A01 vs celecoxib (Example 6); type: in vivo, Female Harlan Balb/c mice (BALB/cAnNHsd)
Method: as §1

PGE-2 = assay: Tumoral PGE-2 in HT-29 tumors (Example 5); type: in vivo, CB17SCID mice; settings: HT-29 tumor, day 24; 10 mg/kg
Method: (§2) HT-29 cells were prepared and implanted by standard methods using the same procedure as Example 1.
(§3) 42 CB17SCID mice were implanted with 2.5×10^6 HT-29 cells.
(§4) Mouse weight and tumor volume measurements were taken on days 0, 3, 6, 9, 12, 15, 18, 21, and 22 following randomization. After 22 days dosing, the blood from each animal was collected at 2 hours and 6 hours post dose.

[2] = tested on: HT-29 xenograft colon carcinoma model; assay: HT-29 xenograft tumor volume, Compound A01 vs celecoxib (Example 5); type: in vivo, CB17SCID mice; settings: 10 mg/kg oral daily
Method: as §2, §3, §4

[3] = Intratumoral concentration of Compound A01 and erlotinib (Example 1); type: in vivo, CB17SCID male mice; settings: male, CB17SCID, mouse, tumor (HT-29 xenograft), oral, 50 mg/kg
Method: (§5) 48 CB17SCID male mice were implanted with 2.5×10^6 HT29 cells. Growth of the tumor was calculated for each animal using a caliper and the equation: V=π×ab^2/6.
(§6) Mouse weight and tumor volume measurements were taken on days 0, 3, 6, 9, 12, 15, 18, 21, and 22 following randomization.

[4] = Body weight in HT-29 xenograft study (Example 1); type: in vivo, CB17SCID male mice; settings: erlotinib 50 mg/kg oral daily
Method: as §5, §6

[5] = tested on: HT-29 xenograft murine colon carcinoma model; assay: HT-29 xenograft tumor growth, Compound A01 with erlotinib (Example 1); type: in vivo, CB17SCID male mice; settings: for Tumor Volume: erlotinib 50 mg/kg oral daily
Method: HT-29 cells were cultured in medium for one week. Following digestion cells were centrifuged for 3-5 minutes at 800-1500 rpm. Cells were washed with PBS and centrifuged again under the same condition. Cells were then suspended in PBS to a final concentration of […]. 200 μL of the HT-29 cell suspension were subcutaneously injected into the mice left forelimb axillary (2.5×10^6 HT-29 cells per mouse).
as §5, §6

[6] = Plasma concentration of Compound A01 and erlotinib (Example 1); type: in vivo, CB17SCID male mice; settings: male, CB17SCID, mouse, plasma, oral, 50 mg/kg
Method: as §5, §6

PGE2 = assay: Intratumoral concentration of PGE2 in HT-29 tumors (Example 1); type: in vivo, CB17SCID male mice; settings: HT-29 tumor, day 24; erlotinib 50 mg/kg
Method: as §5, §6

Structure (SMILES): Cc1ccc(-c2cc(C(F)(F)F)nn2-c2ccc(S(N)(=O)=O)cc2)cc1 [Celecoxib, celecoxib, reference compound]
Mean PGE-2 Concentration (CT26 tumoral) (prostaglandin E2 (PGE2)): 1140 ng/g | CT26 Tumor Volume ([1]; Day 8, 10 mg/kg): 79 ± 4 mm^3 | CT26 Tumor Volume ([1]; Day 8, 30 mg/kg): 76 ± 5 mm^3 | CT26 Tumor Volume ([1]; Day 10, 10 mg/kg): 134 ± 11 mm^3 | CT26 Tumor Volume ([1]; Day 10, 30 mg/kg): 131 ± 17 mm^3 | CT26 Tumor Volume ([1]; Day 13, 10 mg/kg): 369 ± 42 mm^3 | CT26 Tumor Volume ([1]; Day 13, 30 mg/kg): 415 ± 66 mm^3 | CT26 Tumor Volume ([1]; Day 15, 10 mg/kg): 594 ± 84 mm^3 | CT26 Tumor Volume ([1]; Day 15, 30 mg/kg): 685 ± 93 mm^3 | CT26 Tumor Volume ([1]; Day 17, 10 mg/kg): 904 ± 92 mm^3 | CT26 Tumor Volume ([1]; Day 17, 30 mg/kg): 1046 ± 144 mm^3 | Mean PGE-2 (tumoral) (PGE-2): 233.3 ± 267.2 ng/g | Tumor Volume ([2]; Day 0): 67.9 mm^3 | Tumor Volume ([2]; Day 3): 81.8 mm^3 | Tumor Volume ([2]; Day 6): 143.4 mm^3 | Tumor Volume ([2]; Day 9): 244.5 mm^3 | Tumor Volume ([2]; Day 12): 285.5 mm^3 | Tumor Volume ([2]; Day 15): 380.9 mm^3 | Tumor Volume ([2]; Day 18): 541.2 mm^3 | Tumor Volume ([2]; Day 21): 736.1 mm^3 | Tumor Volume ([2]; Day 22): 803.4 mm^3

concentration at 24 day [3]: < 80000 ng/g | concentration at 2 h [6]: 3340 ± 1590 ng/mL | concentration at 6 h [6]: 1260 ± 520 ng/mL
Structure (SMILES): C#Cc1cccc(Nc2ncnc3cc(OCCOC)c(OCCOC)cc23)c1 [Erlotinib, erlotinib, reference compound]
Body weight ([4]; Day 0): 22.4 g | Body weight ([4]; Day 3): 22.4 g | Body weight ([4]; Day 15): 20.5 g | Body weight ([4]; Day 21): 21.0 g | Tumor Volume ([5]; Day 0): 73.7 mm^3 | Tumor Volume ([5]; Day 3): 156.9 mm^3 | Tumor Volume ([5]; Day 6): 192.0 mm^3 | Tumor Volume ([5]; Day 9): 241.0 mm^3 | Tumor Volume ([5]; Day 12): 299.1 mm^3 | Tumor Volume ([5]; Day 15): 394.5 mm^3 | Tumor Volume ([5]; Day 18): 641.1 mm^3 | Tumor Volume ([5]; Day 21): 691.4 mm^3 | Tumor Volume ([5]; Day 22): 774.8 mm^3 | suppression of tumor growth compared to vehicle ([5]; erlotinib alone (50 mg/kg)): 38% | Intratumoral concentration of PGE2 (mean ± SD) (PGE2): 160.6 ± 89.5 µg/g
